Measured values taken from ChEMBL document CHEMBL1201862, “PubChem BioAssay data set” (2004).
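Following 48 hours of exposure in 96-well plates, responses at five concentrations were used to interpolate endpoints linearly. GI50 is the concentration that inhibits growth by half.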 Calls of active or inactive are those of the source. Cut-off read from the data, not from the text of the source: active = GI50 up to about 1.1 µM and inactive = higher.

What was measured:
Experiment in all cases: NCI anticancer screen, dose series, 48 h
RXF 393 = system: RXF 393
K562 = system: K562
LOX IMVI = system: LOX IMVI
MCF7 = system: MCF7
SNB-19 = system: SNB-19
U-251 = system: U-251
KM12 = system: KM12
UO-31 = system: UO-31
COLO 205 = system: COLO 205
RPMI-8226 = system: RPMI-8226
SNB-75 = system: SNB-75
HOP-62 = system: HOP-62
SR = system: SR
HCC 2998 = system: HCC 2998
A549 = system: A549
OVCAR-4 = system: OVCAR-4
SF-295 = system: SF-295
NCI/ADR-RES = system: NCI/ADR-RES
NCI-H226 = system: NCI-H226
UACC-62 = system: UACC-62

Measured: GI50

C/C1=C/C(C)CC(C)OC(=O)C(C)NC(=O)C(Cc2ccc(O)c(I)c2)N(C)C(=O)CNC(=O)C(C)C1 (stereo not given)
inactive: SNB-19 2.42 µM
active: RXF 393 < 0.01 µM | K562 < 0.01 µM | LOX IMVI < 0.01 µM | MCF7 0.125 µM | U-251 < 0.01 µM | KM12 < 0.01 µM | UO-31 < 0.0109 µM | COLO 205 < 0.01 µM | RPMI-8226 < 0.01 µM | SNB-75 < 0.01 µM | HOP-62 < 0.01 µM | SR < 0.01 µM | HCC 2998 < 0.01 µM | A549 < 0.01 µM | OVCAR-4 < 0.01 µM | SF-295 0.0101 µM | NCI/ADR-RES 0.0313 µM

O=C1NC2CCCCC2N=C1CC(=O)c1ccc(Br)cc1 (stereo not given)
inactive: RXF 393 19.5 µM | K562 > 100 µM | LOX IMVI 19.2 µM | MCF7 18 µM | SNB-19 > 100 µM | U-251 20.6 µM | KM12 > 100 µM | UO-31 3.86 µM | COLO 205 > 100 µM | RPMI-8226 2.83 µM | NCI-H226 4.22 µM | UACC-62 4.57 µM | HOP-62 31.8 µM | SR > 100 µM | HCC 2998 39 µM | A549 6 µM | SF-295 17.9 µM | NCI/ADR-RES 4.07 µM

CC(C)C1=CC23CCC4C(C)(C(=O)O)CCCC4(C)C2CC1C1C(=O)N(c2ccc(C(=O)O)cc2)C(=O)C13 (stereo not given)
inactive: RXF 393 > 100 µM | K562 > 100 µM | LOX IMVI > 100 µM | MCF7 > 100 µM | SNB-19 > 100 µM | U-251 > 100 µM | KM12 > 100 µM | UO-31 > 100 µM | COLO 205 > 100 µM | RPMI-8226 > 100 µM | SNB-75 > 100 µM | NCI-H226 > 100 µM | UACC-62 > 100 µM | HOP-62 > 100 µM | HCC 2998 > 100 µM | A549 > 100 µM | OVCAR-4 > 100 µM | SF-295 > 100 µM | NCI/ADR-RES > 100 µM

CCN(CC)c1ccc2cc(-c3nnc(-c4ccccc4)[nH]3)c(=O)oc2c1
inactive: K562 > 100 µM | LOX IMVI 94.4 µM | MCF7 > 100 µM | SNB-19 12.2 µM | U-251 15 µM | KM12 40 µM | UO-31 4.39 µM | COLO 205 > 100 µM | RPMI-8226 54.2 µM | UACC-62 > 100 µM | HOP-62 7.28 µM | SR 70.5 µM | HCC 2998 > 100 µM | A549 68.5 µM | OVCAR-4 7.36 µM | SF-295 24.5 µM | NCI/ADR-RES 21.7 µM

C=CCc1[nH]c2c(OCc3ccccc3)cc(N(CC=C)C(C)=O)cc2c1C
inactive: RXF 393 11.2 µM | K562 10.1 µM | LOX IMVI 12.5 µM | MCF7 12.4 µM | SNB-19 12.8 µM | U-251 12.8 µM | KM12 13.3 µM | UO-31 9.08 µM | COLO 205 15.2 µM | RPMI-8226 12.1 µM | SNB-75 10.7 µM | NCI-H226 17.6 µM | UACC-62 14 µM | HOP-62 17.1 µM | HCC 2998 15.1 µM | A549 13.4 µM | OVCAR-4 8.79 µM | SF-295 13 µM | NCI/ADR-RES 14.3 µM

CC(=O)OCC1OC(N2C(=O)NC(=O)C3C=C4CCCCC4=CC32)CC1OC(C)=O (stereo not given)
inactive: K562 > 100 µM | LOX IMVI > 100 µM | MCF7 > 100 µM | SNB-19 > 100 µM | U-251 > 100 µM | KM12 > 100 µM | UO-31 > 100 µM | RPMI-8226 > 100 µM | SNB-75 56.4 µM | NCI-H226 > 100 µM | UACC-62 > 100 µM | HOP-62 > 100 µM | SR > 100 µM | A549 > 100 µM | OVCAR-4 > 100 µM | SF-295 > 100 µM | NCI/ADR-RES > 100 µM

Cc1ccc(C(=O)/C=C2\Nc3ccccc3N=C2NC23CC4CC(CC(C4)C2)C3)cc1
inactive: K562 > 10 µM | LOX IMVI > 10 µM | MCF7 > 10 µM | SNB-19 > 10 µM | U-251 > 10 µM | KM12 > 10 µM | COLO 205 > 10 µM | RPMI-8226 > 10 µM | SNB-75 > 10 µM | UACC-62 > 10 µM | HOP-62 > 10 µM | SR > 10 µM | HCC 2998 > 10 µM | A549 > 10 µM | OVCAR-4 7.66 µM | SF-295 > 10 µM | NCI/ADR-RES > 10 µM

N#CC1=C(N)OC2=C(CSc3ccccc32)C1c1ccc(Br)cc1 (stereo not given)
inactive: RXF 393 4.04 µM | K562 3.38 µM | LOX IMVI 2.6 µM | MCF7 3.42 µM | SNB-19 17.7 µM | U-251 4.65 µM | KM12 4.37 µM | UO-31 11.5 µM | COLO 205 2.94 µM | RPMI-8226 2.07 µM | SNB-75 7.62 µM | NCI-H226 11.5 µM | UACC-62 6.65 µM | HOP-62 14.1 µM | SR 2.54 µM | A549 7.08 µM | OVCAR-4 5.79 µM | SF-295 12.4 µM | NCI/ADR-RES 2.15 µM

CC1(C)[C@@H](Cn2cnc3c(Cl)nc(N)nc32)CC[C@@]1(C)CO
inactive: RXF 393 65.8 µM | K562 > 100 µM | LOX IMVI 27.9 µM | MCF7 > 100 µM | SNB-19 83.4 µM | U-251 > 100 µM | KM12 > 100 µM | UO-31 3.74 µM | COLO 205 51.5 µM | RPMI-8226 24.2 µM | SNB-75 > 100 µM | NCI-H226 12.7 µM | UACC-62 20 µM | HOP-62 > 100 µM | HCC 2998 22.5 µM | A549 > 100 µM | OVCAR-4 > 100 µM | SF-295 > 100 µM | NCI/ADR-RES 83.4 µM

C/C=C1/CN2CCC3(O)c4ccccc4N4C=C(C(=O)OC)C1CC2C43O (stereo not given)
inactive: K562 81.5 µM | LOX IMVI > 100 µM | MCF7 > 100 µM | SNB-19 > 100 µM | U-251 > 100 µM | KM12 > 100 µM | UO-31 > 100 µM | COLO 205 > 100 µM | RPMI-8226 > 100 µM | SNB-75 > 100 µM | UACC-62 > 100 µM | HOP-62 > 100 µM | SR > 100 µM | HCC 2998 > 100 µM | A549 > 100 µM | OVCAR-4 > 100 µM | SF-295 > 100 µM | NCI/ADR-RES > 100 µM

O=C(O)C(Cc1ccc(O)c([N+](=O)[O-])c1)N1C(=O)c2ccccc2C1=O (stereo not given)
inactive: RXF 393 > 100 µM | K562 > 100 µM | LOX IMVI > 100 µM | MCF7 > 100 µM | SNB-19 > 100 µM | U-251 > 100 µM | KM12 > 100 µM | UO-31 > 100 µM | COLO 205 > 100 µM | RPMI-8226 > 100 µM | SNB-75 > 100 µM | NCI-H226 > 100 µM | UACC-62 > 100 µM | HOP-62 > 100 µM | SR > 100 µM | A549 > 100 µM | OVCAR-4 > 100 µM | SF-295 > 100 µM | NCI/ADR-RES > 100 µM

CCOC(=O)c1c2ccccc2n2c(=O)n(C)nnc12
inactive: RXF 393 > 47.4 µM | K562 > 100 µM | LOX IMVI > 100 µM | MCF7 > 100 µM | SNB-19 > 100 µM | U-251 > 89.1 µM | KM12 > 100 µM | UO-31 > 100 µM | COLO 205 > 100 µM | RPMI-8226 > 100 µM | SNB-75 46.3 µM | NCI-H226 > 100 µM | UACC-62 > 100 µM | HOP-62 12.4 µM | HCC 2998 > 100 µM | A549 > 100 µM | OVCAR-4 > 100 µM | SF-295 40.1 µM | NCI/ADR-RES > 100 µM

CN(C)CC(C)(C)CN1c2ccccc2Sc2ccccc21
inactive: RXF 393 2.12 µM | K562 8.55 µM | LOX IMVI 13.6 µM | MCF7 16.4 µM | SNB-19 15.6 µM | U-251 13.6 µM | KM12 12.8 µM | COLO 205 12.2 µM | RPMI-8226 16.4 µM | SNB-75 4.28 µM | NCI-H226 18 µM | UACC-62 14.9 µM | HOP-62 12.9 µM | SR 10.1 µM | A549 15.5 µM | OVCAR-4 12.9 µM | SF-295 13.8 µM | NCI/ADR-RES 12.7 µM

Cc1cc(C)c2c(n1)S(=O)(=O)N(CCCN1CCN(c3cccc(Cl)c3)CC1)C(C(=O)c1ccccc1)=C2O
inactive: K562 35.6 µM | LOX IMVI 6.01 µM | MCF7 29.8 µM | SNB-19 30.2 µM | U-251 37.6 µM | KM12 33.7 µM | UO-31 19.2 µM | COLO 205 18.7 µM | UACC-62 36.1 µM | HOP-62 36.6 µM | SR 17.1 µM | A549 30.4 µM | OVCAR-4 24.7 µM | SF-295 31.8 µM | NCI/ADR-RES 20.6 µM

COc1ccc(C2CC(=O)CC(c3ccc(OC)cc3)C23C(=O)NC(=O)NC3=O)cc1 (stereo not given)
inactive: RXF 393 45.9 µM | K562 37.9 µM | LOX IMVI 30.5 µM | MCF7 25.1 µM | SNB-19 35.3 µM | U-251 57.8 µM | KM12 25.6 µM | UO-31 31.6 µM | COLO 205 32.1 µM | SNB-75 25.8 µM | NCI-H226 35.2 µM | UACC-62 64.1 µM | HOP-62 13.8 µM | SR 30.4 µM | HCC 2998 20.3 µM | OVCAR-4 67 µM | SF-295 38 µM | NCI/ADR-RES 34.4 µM
